Measured values reported in article PMC9115881, “Penicillin Derivatives Inhibit the SARS-CoV-2 Main Protease by Reaction with Its Nucleophilic Cysteine” (Journal of Medicinal Chemistry, 2022).
Entries after “also recorded” stand apart in the source; their conditions may differ.

How the values were obtained:
[1] = target: T1, SARS-CoV-2 M^pro (Severe acute respiratory syndrome coronavirus 2, UniProt P0DTD1); test: Protein-observed M^pro assay (SPE-MS), covalent modification; format: binding; settings: M^pro 2.0 μM, inhibitor 11 or 33 μM, 45 min
Method: Selected compounds were tested for reaction with M^pro using protein-observed MS to inform on their mechanism of inhibition (Figure 2). Initially, M^pro was incubated with a ∼6-fold excess of the penicillin sulfone ester for 45 min and then analyzed by MS. […] When the inhibitor concentration was increased to ∼17-fold to account for the possibility of modifying all 12 M^pro cysteine or other residues, only low levels of a second covalent M^pro modification by the inhibitors were observed (Figure 2A–C). No evidence for fragmentation of the inhibitors once bound to M^pro was accrued.
Solutions of the inhibitors (100% DMSO) were dry-dispensed across 384-well polypropylene assay plates (Greiner) (for 11 or 33 μM top concentrations) using an ECHO 550 acoustic dispenser (Labcyte). DMSO was used as a negative control. Each reaction was performed in technical duplicates. The enzyme mixture (50 μL/well), containing M^pro (2.0 μM) in buffer (20 mM HEPES, pH 7.5), was dispensed across the penicillin-containing 384-well assay plates with a multidrop dispenser (Thermo Fischer Scientific). The reaction mixture was incubated for 45 min at 20 °C under an ambient atmosphere prior to analysis by SPE-MS.
MS analyses were performed using a RapidFire RF 365 high-throughput sampling robot (Agilent) attached to an iFunnel Agilent 6550 accurate mass Q-TOF mass spectrometer using a C4 cartridge and the same parameters as described above, with the exception of the gas temperature that was reduced to 225 °C. Protein spectra were deconvoluted for the m/z range 850–1350 Da, with a resolution of 2 Da and with a 10–60 kDa cutoff using the MaxEnt1 function in Agilent MassHunter Version 7. The deconvoluted files were extracted as csv files, sorted using Enthought Canopy GUI, and normalized and plotted using GraphPad Prism 9.

[2] = target: T1, SARS-CoV-2 M^pro; test: biochemical; format: biochemical; settings: for M^pro inhibition, result in words: SPE-MS inhibition assay
[3] = target: T1, SARS-CoV-2 M^pro; test: SPE-MS M^pro inhibition assay, 11mer peptide substrate; format: biochemical; settings: Table 1; compounds 15, 16: 11mer peptide as substrate; M^pro […], substrate 2.0 μM; read-out: IC50
[4] = Table 1, M^pro […], 37mer substrate 2.0 μM, 15 min preincubation, mean ± SD, n ≥ 2, read-out: IC50
[5] = read-out: IC50 [μM] using SPE-MS (37mer peptide)
[6] = Table S2, M^pro 0.15 μM, 37mer substrate peptide 2.0 μM, mean ± SD, n ≥ 2, read-out: IC50 [μM] using SPE-MS (37mer peptide)
[7] = Table 2, M^pro […], 37mer substrate 2.0 μM, mean ± SD, n ≥ 2, read-out: IC50
[8] = Table 3, M^pro […], 37mer substrate 2.0 μM, mean ± SD, n ≥ 2, read-out: IC50
[9] = Table 4, M^pro 0.15 μM, 37mer substrate 2.0 μM, mean ± SD, n ≥ 2, read-out: IC50

O=c1[nH]sc2ccccc12 [BIT, benzoisothiazolinone, reference compound]
covalent modification of M^pro by protein-observed MS [1]: non-selectively undergoes covalent

CC1(C)S[C@@H]2[C@H](NC(=O)COc3ccccc3)C(=O)N2[C@H]1C(=O)O [Compound 12, penicillin V, reference compound]
IC50 [2, 4]: > 50 µM

CC1(C)S[C@@H]2[C@H](NC(=O)COc3ccccc3)C(=O)N2[C@H]1C(=O)OCc1ccccc1 [Compound 13]
IC50 [2, 4]: > 50 µM

CC1(C)[C@H](C(=O)OCc2ccccc2)N2C(=O)[C@H](NC(=O)COc3ccccc3)[C@H]2[S@@+]1[O-] [Compound 15, (6S)-penicillin V (S)-sulfoxide benzyl ester]
IC50 [3]: > 50 µM

CC1(C)[C@H](C(=O)OCc2ccccc2)N2C(=O)[C@@H](NC(=O)COc3ccccc3)C[C@H]2S1(=O)=O [Compound 17]
covalent modification of M^pro by protein-observed MS [1]: appears to inhibit M^pro via a different mechanism

CC1(C)S[C@@H]2[C@H](NC(=O)COc3ccccc3)C(=O)N2[C@H]1C(=O)OCc1ccccc1F [Compound 19a]
IC50 [2, 5]: 47.7 ± 6.8 µM

CC1(C)S[C@@H]2[C@H](NC(=O)COc3ccccc3)C(=O)N2[C@H]1C(=O)OCc1ccc(F)cc1 [Compound 19c]
IC50 [2, 5]: > 50 µM

CC1(C)S[C@@H]2[C@H](NC(=O)COc3ccccc3)C(=O)N2[C@H]1C(=O)OCc1cc(F)cc(F)c1 [Compound 19d]
IC50 [2, 6]: > 50 µM

CC1(C)S[C@@H]2[C@H](NC(=O)COc3ccccc3)C(=O)N2[C@H]1C(=O)OCc1ccc(F)cc1F [Compound 19e]
IC50 [2, 6]: > 50 µM

CC1(C)S[C@@H]2[C@H](NC(=O)COc3ccccc3)C(=O)N2[C@H]1C(=O)OCc1c(F)cc(F)cc1F [Compound 19g]
IC50 [2, 6]: > 50 µM

COc1ccc(COC(=O)[C@@H]2N3C(=O)[C@@H](NC(=O)COc4ccccc4)[C@H]3SC2(C)C)cc1 [Compound 19k]
IC50 [2, 6]: 45.8 ± 11 µM

CC1(C)[C@H](C(=O)OCc2ccccc2F)N2C(=O)[C@@H](NC(=O)COc3ccccc3)[C@H]2S1(=O)=O [Compound 20a]
IC50 [2, 7]: 5.8 ± 2 µM
covalent modification of M^pro by protein-observed MS [1]: covalent reaction with Cys145

CC1(C)[C@H](C(=O)OCc2cccc(F)c2)N2C(=O)[C@@H](NC(=O)COc3ccccc3)[C@H]2S1(=O)=O [Compound 20b]
IC50 [2, 7]: 9.2 ± 3.7 µM

CC1(C)[C@H](C(=O)OCc2ccc(F)cc2)N2C(=O)[C@@H](NC(=O)COc3ccccc3)[C@H]2S1(=O)=O [Compound 20c]
IC50 [2, 7]: 7.4 ± 2.3 µM
covalent modification of M^pro by protein-observed MS [1]: covalent reaction with Cys145

CC1(C)[C@H](C(=O)OCc2cc(F)c(F)c(F)c2)N2C(=O)[C@@H](NC(=O)COc3ccccc3)[C@H]2S1(=O)=O [Compound 20f]
IC50 [2, 7]: > 50 µM

CC1(C)[C@H](C(=O)OCc2cc(C(F)(F)F)cc(C(F)(F)F)c2)N2C(=O)[C@@H](NC(=O)COc3ccccc3)[C@H]2S1(=O)=O [Compound 20h]
M^pro inhibition, result in words [2]: inhibited M^pro
IC50 [2, 7]: 35.3 ± 2.2 µM

CC1(C)[C@H](C(=O)OCc2cccc([N+](=O)[O-])c2)N2C(=O)[C@@H](NC(=O)COc3ccccc3)[C@H]2S1(=O)=O [Compound 20i]
M^pro inhibition, result in words [2]: inhibited M^pro
IC50 [2, 7]: 13.3 ± 5.3 µM

CC1(C)[C@H](C(=O)OCc2ccc([N+](=O)[O-])cc2)N2C(=O)[C@@H](NC(=O)COc3ccccc3)[C@H]2S1(=O)=O [Compound 20j, penicillin V sulfone para-nitrobenzyl ester]
M^pro inhibition, result in words [2]: do not, at least efficiently, inhibit M^pro
IC50 [2, 7]: > 50 µM

COc1ccc(COC(=O)[C@@H]2N3C(=O)[C@@H](NC(=O)COc4ccccc4)[C@H]3S(=O)(=O)C2(C)C)cc1 [Compound 20k]
M^pro inhibition, result in words [2]: do not, at least efficiently, inhibit M^pro
IC50 [2, 7]: 31.1 ± 13.9 µM

CC1(C)[C@H](C(=O)OCc2ccc3ccccc3c2)N2C(=O)[C@@H](NC(=O)COc3ccccc3)[C@H]2S1(=O)=O [Compound 20l]
M^pro inhibition, result in words [2]: do not, at least efficiently, inhibit M^pro
IC50 [2, 7]: > 50 µM

CC1(C)[C@H](C(=O)OCc2ccc(C(F)(F)F)o2)N2C(=O)[C@@H](NC(=O)COc3ccccc3)[C@H]2S1(=O)=O [Compound 20m]
M^pro inhibition, result in words [2]: inhibit M^pro, albeit with slightly reduced potency compared to 10
IC50 [2, 7]: 10.2 ± 2.2 µM

Cc1cc(COC(=O)[C@@H]2N3C(=O)[C@@H](NC(=O)COc4ccccc4)[C@H]3S(=O)(=O)C2(C)C)no1 [Compound 20n]
M^pro inhibition, result in words [2]: inhibit M^pro, albeit with slightly reduced potency compared to 10
IC50 ([2]; Table 2, M^pro 0.15 μM, 37mer substrate 2.0 μM, mean ± SD, n ≥ 2, read-out: IC50): 9 ± 1.3 µM

COC(=O)[C@@H]1N2C(=O)[C@@H](NC(=O)COc3ccccc3)[C@H]2S(=O)(=O)C1(C)C [Compound 20o]
IC50 [2, 7]: 7.9 ± 1.4 µM

CCOC(=O)[C@@H]1N2C(=O)[C@@H](NC(=O)COc3ccccc3)[C@H]2S(=O)(=O)C1(C)C [Compound 20p]
IC50 [2, 7]: 5.2 ± 0.6 µM
covalent modification of M^pro by protein-observed MS [1]: covalent reaction with Cys145

CC1(C)[C@H](C(=O)OCC#N)N2C(=O)[C@@H](NC(=O)COc3ccccc3)[C@H]2S1(=O)=O [Compound 20r]
IC50 [2, 7]: 9.7 ± 3.3 µM

CC1(C)[C@H](C(=O)OCc2ccccc2)N2C(=O)[C@@H](NC(=O)OCc3ccccc3)[C@H]2S1(=O)=O [Compound 25a]
M^pro inhibition, result in words [2]: abolished M^pro inhibition
IC50 [2, 8]: > 50 µM
covalent modification of M^pro by protein-observed MS [1]: do not covalently react with Cys145; also recorded: does not modify M^pro covalently; also recorded: but not 25a

CC1(C)[C@H](C(=O)OCc2ccccc2)N2C(=O)[C@@H](NC(=O)CCc3ccccc3)[C@H]2S1(=O)=O [Compound 25b]
IC50 [2, 8]: 45.7 ± 0.9 µM
covalent modification of M^pro by protein-observed MS [1]: do not covalently react with Cys145

CC1(C)[C@H](C(=O)OCc2ccccc2)N2C(=O)[C@@H](NC(=O)CNC(=O)c3ccccc3)[C@H]2S1(=O)=O [Compound 25d]
IC50 [2, 8]: > 50 µM

CC1(C)[C@H](C(=O)OCc2ccccc2)N2C(=O)[C@@H](NC(=O)CNC(=O)OCc3ccccc3)[C@H]2S1(=O)=O [Compound 25e]
IC50 [2, 8]: > 50 µM

CC(C)C[C@H](NC(=O)OCc1ccccc1)C(=O)N[C@@H]1C(=O)N2[C@@H](C(=O)OCc3ccccc3)C(C)(C)S(=O)(=O)[C@H]12 [Compound 25f]
IC50 [2, 8]: > 50 µM

CC1(C)[C@H](C(=O)OCc2ccccc2)N2C(=O)[C@@H](NC(=O)COc3c(F)c(F)c(F)c(F)c3F)[C@H]2S1(=O)=O [Compound 25h]
M^pro inhibition, result in words [2]: did not alter M^pro inhibition substantially
IC50 [2, 8]: 5.3 ± 3.3 µM

CC(Oc1ccccc1)C(=O)N[C@@H]1C(=O)N2[C@@H](C(=O)OCc3ccccc3)C(C)(C)S(=O)(=O)[C@H]12 (some centres unmarked) [Compound 25i]
M^pro inhibition, result in words [2]: substantially reduced inhibition
IC50 [2, 8]: > 50 µM

CC(Oc1ccccc1)C(=O)N[C@@H]1C(=O)N2[C@@H](C(=O)OCc3ccc(F)cc3)C(C)(C)S(=O)(=O)[C@H]12 (some centres unmarked) [Compound 25j]
M^pro inhibition, result in words [2]: substantially reduced inhibition
IC50 [2, 8]: > 50 µM

CC1(C)[C@H](C(=O)OCc2ccccc2)N2C(=O)[C@@H](NC(=O)COC3CCCCC3)[C@H]2S1(=O)=O [Compound 25m]
covalent modification of M^pro by protein-observed MS [1]: covalent reaction with Cys145

CC1(C)[C@H](C(=O)OCc2ccccc2)N2C(=O)C(Br)(Br)[C@H]2S1(=O)=O [Compound 28, 6,6-dibromopenicillanic acid sulfone benzyl ester]
IC50 [2, 9]: ~0.6 µM
covalent modification of M^pro by protein-observed MS [1]: initial covalent M^pro binding is followed by rapid subsequent reaction to give new species

CC1(C)[C@H](C(=O)OCc2ccc([N+](=O)[O-])cc2)N2C(=O)C(Br)(Br)[C@H]2S1(=O)=O [Compound 31, 6,6-dibromopenicillanic acid sulfone para-nitrobenzyl ester]
covalent modification of M^pro by protein-observed MS [1]: initial covalent M^pro binding is followed by rapid subsequent reaction to give new species

CC1(C)[C@H](C(=O)OCc2ccc([N+](=O)[O-])cc2)N2C(=O)C(Br)(Br)[C@H]2[S+]1[O-] (stereo partly drawn) [Compound 32, 6,6-dibromopenicillaic acid (R)-sulfoxide para-nitrobenzyl ester]
IC50 [2, 9]: ~0.6 µM
covalent modification of M^pro by protein-observed MS [1]: initial covalent M^pro binding is followed by rapid subsequent reaction to give new species

CC1(C)[C@H](C(=O)OCc2ccccc2)N2C(=O)C[C@H]2S1(=O)=O [Compound 34]
IC50 ([2]; Table 4, M^pro […], 37mer substrate 2.0 μM, mean ± SD, n ≥ 2, read-out: IC50): > 50 µM
